pEC50, pIC50: −log10 of the molar value. Where two headings read alike, the source gives them in different places.
Tests used:
[1] = system: recombinant human PDE4; assay: Inhibition of recombinant human PDE4 (cAMP hydrolysis); conditions: read-out: PDE4 IC50
Protocol: The compounds of structural formula (II) were tested for an ability to inhibit PDE4. […] The IC, value for compounds of structural formula (II) were determined using recombinant human PDE4.
Phosphodiesterase activity of the preparations was determined as follows. […] In this assay, PDE activity converts [32P]cAMP or [32P]cGMP to the corresponding [32P]5′-AMP or [32P]5′-GMP in proportion to the amount of PDE activity present. The [32P]5′-AMP or [32P]5′-GMP then was quantitatively converted to free [32P]phosphate and unlabeled adenosine or guanosine by the action of snake venom 5′-nucleotidase. […] The assay was performed at 30° C. in a 100 μL reaction mixture containing (final concentrations) 40 mM Tris HCl (pH 8.0), 1 μM ZnSO4, 5 mM MgCl2, and 0.1 mg/mL bovine serum albumin (BSA). […] PDE enzyme was present in quantities that yield<30% total hydrolysis of substrate (linear assay conditions). The assay was initiated by addition of substrate (1 mM [32P]cAMP or cGMP), and the mixture was incubated for 12 minutes. Seventy-five (75) μg of Crotalus atrox venom then was added, and the incubation was continued for 3 minutes (15 minutes total). The reaction was stopped by addition of 200 μL of activated charcoal (25 mg/mL suspension in 0.1 M NaH2PO4, pH 4). After centrifugation (750×g for 3 minutes) to sediment the charcoal, a sample of the supernatant was taken for radioactivity determination in a scintillation counter and the PDE activity was calculated.

[2] = system: serum TNFα levels in LPS-injected mice; assay: Inhibition of serum TNFα levels in LPS-injected mice (Mouse/TNFα ED50); assay type: in vivo; conditions: Mus musculus
Protocol: In order to assess the ability of a compound to reduce serum TNFα levels in mammals, the following protocol was employed. […] Accordingly, in vivo efficacy of a PDE4 reducing compound was shown by dosing with compound and measuring reduction of serum TNFα levels in LPS-injected mice. Female C3H mice, 20-25 gm body weight, were fasted overnight and dosed intraperitoneally with test compound in appropriate vehicle 60 minutes before LPS injection. Five μg of LPS was then injected intraperitoneally into the mice. Ninety minutes after LPS injection, mice were bled from the heart. Blood was allowed to clot overnight at 4° C. Samples were centrifuged for 10 minutes in a microcentrifuge and the serum removed and stored at −20° C. until analysis. Serum levels of TNFα were subsequently measured using a commercially available ELISA kit (Genzyme) following the protocol enclosed in the kit. The percent of inhibition of serum TNFα levels caused by the compound was determined relative to serum TNFα levels in control mice receiving vehicle alone. […]

[3] = system: human peripheral blood lymphocytes; assay: Lipopolysaccharide-stimulated TNFα release from human peripheral blood lymphocytes; assay type: cell-based; conditions: Homo sapiens, Lymphocyte
Protocol: The compounds of structural formula (II) also were tested for an ability to reduce TNFα secretion in human peripheral blood lymphocytes. The ability to reduce TNFα secretion is related to the EC50 values (i.e., the effective concentration of the compound capable of inhibiting 50% of the total TNFα).
To assess the ability of a compound to reduce TNFα secretion in human peripheral blood lymphocytes (PBL), the following tests were performed.
Heparinized blood (approximately 30 mL) drawn from human volunteers was mixed 1:1 with Dulbecco's modified phosphate-buffered saline. This mixture was mixed 1:1 with HISTOPAQUE® and centrifuged at 1,500 rpm at room temperature without braking in the swinging bucket of a Beckman model TJ6 centrifuge. Erythrocytes were centrifuged to the bottom of the tubes, and serum remained at the surface of the tubes. A layer containing lymphocytes sedimented between the serum and HISTOPAQUE® layers, and was removed by aspiration to a fresh tube. The cells were quantified and adjusted to 3×10^6 cells/mL and a 100 μL aliquot is placed into the wells of a 96 well plate. Test compounds and RPMI media (Gibco/BRL Life Sciences) are added to each of the wells 15 minutes prior to addition of bacterial LPS ([…]). The mixture was allowed to incubate for 20 hours at 37° C. in a humidified chamber. The cells then were separated by centrifuging at 800 rpm for 5 minutes at room temperature. An aliquot of 180 μL of supernatant was transferred to a new plate for determination of TNFα concentration. TNFα protein in the cell supernatant fluids was measured using a commercially available enzyme-linked immunosorbent assay (ELISA) (CYTOSCREEN® Immunoassay Kit from Biosource International).
The cell-based assay provided the following results for various pyrrolidine compounds of the present invention. The EC50 values (i.e., effective concentration of the compound capable of inhibiting 50% of the total TNFα) illustrate the ability of the present compounds to inhibit LPS-stimulated TNFα release from human PBL.

[4] = system: ferret; assay: Emetic modeling in the ferret following oral and intravenous dosing; assay type: in vivo, Mustela putorius furo
Protocol: This study was conducted to investigate the emetogenic properties of PDE4 inhibitors in vivo. The ferret previously has been established as a valuable tool for assessing emesis following exposure to test compounds. […] Therefore, lack of and/or decrease in emetic potential of test compounds in ferrets predicts a favorable nonemetic effect in humans. Emesis is a complex physiological response to noxious agents that can be intiated peripherally or centrally.
The test animals were adult, castrated, and descented male ferrets (species=Mustela putorius furo, Strain=Sable) ranging in weight from about 1 to 1.5 kg. The tests were performed in quadruplicate on animals that were naive to PDE4 inhibitors. The PDE4 inhibitors were formulated in 10% Polyoxyl-35 castor oil (CREMOPHOR® EL, available from BASF Corporation, Parsippany, N.J.) in phosphate buffered saline (PBS), and were administered via i.v. injections into an indwelling catheter surgically positioned in the right external jugular vein at a rate of 0.66 mL per kg body weight. PDE4 inhibitors for oral consumption were formulated in 30% CREMOPHOR® EL in PBS, and administered by intubating animals with a 16-gauge feeding needle into the stomach. The animals received the PDE4 inhibitors in a volume of 1.33 mL per kg body weight.
All animals were fasted for 8 to 12 hours prior to administration of PDE4 inhibitors. Following administration of a PDE4 inhibitor, emetic and behavioral responses were quantified for three hours post dosing. The total number of emetic responses and vomiting episodes were quantified during the observation interval. In addition, latency time to first emetic episode, duration of emesis episodes, and gross behavioral changes including ataxia, profuse and viscous salivation, mouth clawing, hyperventilation, backward walking, flattened body posture, hyperactivity, lip licking, and general appearance were recorded.
For comparative purposes, the emetogenic effect of Samples 66 and 69 were tested intravenously at 1.0, 2.5, 5.0, and 10 mg/kg and orally at 2.5, 10, 17, and 25 mg/kg.

[5] = system: mouse; assay: Subjective assessment of mouse immobility (CNS side effects); assay type: in vivo
[6] = Mouse locomotor activity assay (decrease in spontaneous mobility); conditions: female, Balb/c, in vivo
Protocol: The purpose of this study was to determine the efficacy of PDE4 inhibitors in vivo in an LPS mouse model together with a determination with respect to central nervous system (CNS) side-effects manifested by a decrease in spontaneous mobility.
The test animals were female Balb/c mice, having an average weight of about 20 g. The PDE4 inhibitors, formulated in 30% Cremophor® EL, were administered via intraperitoneal (i.p.) injections at doses of 0.1, 1.0, 10.0, and 100 mg/kg. Individual dose volumes (about 150 μL) were adjusted based on the body weights measured. One hour later, 5 mg/kg LPS in a final volume of 200 μL was injected via the tail vein to each animal. Ninety minutes following the LPS treatment, the animals were bled and serum samples were collected before being stored at −70° C. until assayed.
Movement of the X-Y plane, or rearing up on the hind legs, was quantified by counting the number of “light-beam” crosses per unit of time. A decrease in the number of activity events is directly proportional to the mobility or immobilization of the animal. The quantitative scoring correlated well with the subjective measurements described above.

[7] = target: T1, human recombinant PDE4B (Homo sapiens, UniProt Q07343); assay: Inhibition of human recombinant PDE4B; assay type: biochemical; conditions: read-out: PDE4B IC50
T1 construct: made in house; host or cells: Saccharomyces cerevisiae strain YI23 harboring HDUN2.32
T1 sequence (Q07343 whole entry): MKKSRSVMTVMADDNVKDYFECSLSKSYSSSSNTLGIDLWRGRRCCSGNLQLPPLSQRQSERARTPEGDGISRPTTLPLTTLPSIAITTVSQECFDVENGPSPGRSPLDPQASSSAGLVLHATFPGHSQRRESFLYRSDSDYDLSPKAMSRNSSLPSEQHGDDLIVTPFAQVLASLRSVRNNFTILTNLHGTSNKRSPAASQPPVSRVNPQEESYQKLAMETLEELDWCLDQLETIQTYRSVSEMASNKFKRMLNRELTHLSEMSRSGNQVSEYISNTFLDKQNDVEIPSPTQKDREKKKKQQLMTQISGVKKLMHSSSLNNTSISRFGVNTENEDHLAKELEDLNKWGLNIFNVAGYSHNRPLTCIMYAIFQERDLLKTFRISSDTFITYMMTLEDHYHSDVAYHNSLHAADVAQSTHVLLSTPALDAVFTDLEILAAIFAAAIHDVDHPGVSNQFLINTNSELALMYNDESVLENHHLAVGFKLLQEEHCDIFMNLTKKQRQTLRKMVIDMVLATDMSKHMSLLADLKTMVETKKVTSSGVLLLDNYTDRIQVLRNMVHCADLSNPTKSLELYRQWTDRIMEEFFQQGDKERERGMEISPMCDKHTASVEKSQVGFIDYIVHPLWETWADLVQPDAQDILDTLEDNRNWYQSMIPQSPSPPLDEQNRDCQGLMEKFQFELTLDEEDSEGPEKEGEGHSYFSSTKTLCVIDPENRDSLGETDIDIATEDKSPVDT

[8] = A. Robichaud et al., Neuropharmacology 1999; cited from earlier work
[9] = system: recombinant human PDE4; conditions: background, prior art; read-out: reported IC50 with respect to recombinant human PDE4; cited from earlier work
[10] = LPS-stimulated TNFα release from human PBL, read-out: PBL/TNFα EC50
[11] = ip, read-out: ED50, effective dose that decreases spontaneous mobility 50% of control
[12] = read-out: Mouse LPS Challenge ED50
[13] = intraperitoneal, read-out: Mouse Inhibition of Spontaneous Mobility ED50

Structure (SMILES): COC(=O)N1C[C@H](c2ccc(OC)c(OC3CCCC3)c2)[C@@](C)([C@H](C)O)C1 [(A)]
- pIC50 ([1]; human recombinant PDE4): 7.88
- pIC50 ([1]; stereoisomer comparison table): 7.88
- ED50 ([2]; stereoisomer comparison table, read-out: Mouse/TNFα ED50): 7 mg/kg
- pEC50 [3, 10]: 7.24
- Number of Emetic Events: Retches ([4]; intravenous 1.0 mg/kg): 0
- Number of Emetic Events: Total ([4]; intravenous 1.0 mg/kg): 0
- Number of Emetic Events: Vomits ([4]; intravenous 1.0 mg/kg): 0
- Responders ([4]; intravenous 1.0 mg/kg): 0/4
- Number of Emetic Events: Retches ([4]; intravenous 2.5 mg/kg): 3
- Number of Emetic Events: Total ([4]; intravenous 2.5 mg/kg): 3
- Number of Emetic Events: Vomits ([4]; intravenous 2.5 mg/kg): 0
- Responders ([4]; intravenous 2.5 mg/kg): 1/4
- Number of Emetic Events: Retches ([4]; intravenous 5.0 mg/kg): 300
- Number of Emetic Events: Total ([4]; intravenous 5.0 mg/kg): 300
- Number of Emetic Events: Vomits ([4]; intravenous 5.0 mg/kg): 0
- Responders ([4]; intravenous 5.0 mg/kg): 2/2
- outcome after intravenous dosing ([4]; intravenous 5 mg/kg body weight): one of the tested animals died almost immediately after dosing
- Number of Emetic Events: Retches ([4]; oral 2.5 mg/kg): 0
- Number of Emetic Events: Total ([4]; oral 2.5 mg/kg): 0
- Number of Emetic Events: Vomits ([4]; oral 2.5 mg/kg): 0
- Responders ([4]; oral 2.5 mg/kg): 0/4
- Number of Emetic Events: Retches ([4]; oral 10.0 mg/kg): 27
- Number of Emetic Events: Total ([4]; oral 10.0 mg/kg): 32
- Number of Emetic Events: Vomits ([4]; oral 10.0 mg/kg): 5
- Responders ([4]; oral 10.0 mg/kg): 3/4
- Number of Emetic Events: Retches ([4]; oral 17.0 mg/kg): 51
- Number of Emetic Events: Total ([4]; oral 17.0 mg/kg): 58
- Number of Emetic Events: Vomits ([4]; oral 17.0 mg/kg): 7
- Responders ([4]; oral 17.0 mg/kg): 3/4
- Number of Emetic Events: Retches ([4]; oral 25.0 mg/kg): 88
- Number of Emetic Events: Total ([4]; oral 25.0 mg/kg): 114
- Number of Emetic Events: Vomits ([4]; oral 25.0 mg/kg): 26
- Responders ([4]; oral 25.0 mg/kg): 4/4
- emetic response, comparison of compounds ([4]; oral or intravenous): much stronger emetic response than compound (C)
- mouse mobility assessment (footnote statement) ([5]; i.p. 1, 10 and 100 mg/kg, 60 minutes time frame): mice were affected at all doses
- outcome at the highest dose ([5]; mouse, i.p., highest dose (100 mg/kg)): mice became moribund and died within 10 minutes of treatment
- CNS Side Effects ([5]; subjective assessment of mouse immobility, i.p. 1, 10 and 100 mg/kg, 60 minutes): Severe

Structure (SMILES): COc1ccc([C@@H]2CN(c3ccccn3)C[C@@]2(C)[C@@H](C)O)cc1OC1Cc2ccccc2C1 [Example 31, (1R)-1-[(3S,4S)-4-(3-Indan-2-yloxy-4-methoxyphenyl)-3-methyl-1-(2-pyridyl)pyrrolidin-3-yl]ethan-1-ol]
- ED50 ([2]; mouse, i.p., LPS challenge, read-out: Mouse/TNFα ED50): 3 mg/kg
- pEC50 [3, 10]: 7.46
- ED50 [6, 11]: 83 mg/kg

Structure (SMILES): COc1ccc([C@@H]2CN(C(=O)[C@H](C)O)C[C@@]2(C)[C@@H](C)O)cc1OC1CCCC1 [Example 67, 1-[3-((1R)-1-Hydroxyethyl)(3S,4S)-4-(3-cyclopentyloxy-4-methoxyphenyl)-3-methylpyrrolidinyl](2S)-2-hydroxypropan-1-one]
- pEC50 [3, 10]: 6.22
- ED50 [6, 11]: > 50 mg/kg

Structure (SMILES): CCCC(O)C(=O)N1C[C@@H](c2ccc(OC)c(OCC3CC3)c2)[C@](C)([C@@H](C)O)C1 (stereo partly drawn) [Example 101, 1-{(3S,4S)-3-((1R)-1-Hydroxyethyl)-4-[3-(cyclopropylmethoxy)-4-methoxyphenyl]-3-methylpyrrolidinyl)-2-hydroxypentan-1-one]
- ED50 [2, 12]: 3 mg/kg
- pIC50 [7]: 7.96
- pEC50 ([3]; read-out: Cell based EC50): 7.52
- ED50 [6, 13]: 100 mg/kg

Structure (SMILES): COc1ccc([C@@H]2CN(C(=O)[C@H](N)CO)C[C@@]2(C)[C@@H](C)O)cc1OCC1CC1.Cl [Example 109, hydrochloride]
- pIC50 [7]: 7.70
- pEC50 ([3]; read-out: Cell based EC50): 7.52

Structure (SMILES): COc1ccc([C@@H]2CN(C(=O)[C@H](N)CO)C[C@@]2(C)[C@@H](C)O)cc1OCC1CC1.Cl [Example 109]
- ED50 [2, 12]: 5 mg/kg
- ED50 [6, 13]: 100 mg/kg

Structure (SMILES): COc1ccc([C@@H]2CN(C(=O)C(O)c3ccccc3)C[C@@]2(C)[C@@H](C)O)cc1OCC1CC1 (stereo partly drawn) [Example 195, 1-{3-((1R)-1-Hydroxyethyl)(3S,4S)-4-[3-(cyclopropyl-methoxy)-4-methoxyphenyl]-3-methylpyrrolidinyl}-2-hydroxy-2-phenylethan-1-one]
- ED50 [2, 12]: 9 mg/kg
- pIC50 [7]: 8.15
- pEC50 ([3]; read-out: Cell based EC50): 7.52
- ED50 [6, 13]: 100 mg/kg

Structure (SMILES): COc1ccc([C@@H]2CN(C(=O)[C@@H](O)CO)C[C@@]2(C)[C@@H](C)O)cc1OCC#Cc1ccccc1 [Example 264, (S)-2,3-Dihydroxy-1-{(3S,4S)-3-((R)-1-hydroxyethyl)-4-[4-methoxy-3-(3-phenylprop-2-ynyloxy)phenyl]-3-methylpyrrolidin-1-yl}propan-1-one]
- ED50 [2, 12]: 1 mg/kg
- pIC50 [7]: 8.52
- pEC50 ([3]; read-out: Cell based EC50): 8.00
- ED50 [6, 13]: < 100 mg/kg

Structure (SMILES): COc1ccc([C@@H]2CN(C(=O)[C@@H](O)Cc3ccccc3)C[C@@]2(C)[C@@H](C)O)cc1OCC#Cc1ccccc1 [Example 268, (S)-2-Hydroxy-1-{(3S,4S)-3-((R)-1-hydroxyethyl)-4-[4-methoxy-3-(3-phenylprop-2-ynyloxy)phenyl]-3-methylpyrrolidin-1-yl}-3-phenylpropan-1-one]
- ED50 [2, 12]: 5 mg/kg
- pIC50 [7]: 7.82
- pEC50 ([3]; read-out: Cell based EC50): 8.22
- ED50 [6, 13]: 100 mg/kg

Structure (SMILES): COc1ccc([C@@H]2CNC(=O)C2)cc1OC1CCCC1 [R-rolipram]
- emetic potency relative to the (+)-enantiomer (S-rolipram) [8]: about ten-fold

Structure (SMILES): COc1ccc(C2CNC(=O)C2)cc1OC1CCCC1 (centres unmarked) [Rolipram, rolipram]
- pIC50 [9]: ~6.70

Structure (SMILES): COC(=O)N1CC(c2ccc(OC)c(OC3CCCC3)c2)C(C)(C(C)=O)C1 (centres unmarked) [formula (I)]
- pIC50 [9]: ~8.70
